Source: BindingDB's records for doi:10.1016/j.bmcl.2017.05.024 (Yeungnam University, 2017)

These molecules were tested against Hypoxia-inducible factor 1-alpha (Homo sapiens, UniProt Q16665) (assay: ChEBML_1685544).
From the text: Inhibition of hypoxia-induced HIF1alpha (unknown origin) transcriptional activity expressed in human HCT116 cells by HRE luciferase reporter gene assay

Hypoxia-inducible factor 1-alpha, sequence (Q16665 whole entry): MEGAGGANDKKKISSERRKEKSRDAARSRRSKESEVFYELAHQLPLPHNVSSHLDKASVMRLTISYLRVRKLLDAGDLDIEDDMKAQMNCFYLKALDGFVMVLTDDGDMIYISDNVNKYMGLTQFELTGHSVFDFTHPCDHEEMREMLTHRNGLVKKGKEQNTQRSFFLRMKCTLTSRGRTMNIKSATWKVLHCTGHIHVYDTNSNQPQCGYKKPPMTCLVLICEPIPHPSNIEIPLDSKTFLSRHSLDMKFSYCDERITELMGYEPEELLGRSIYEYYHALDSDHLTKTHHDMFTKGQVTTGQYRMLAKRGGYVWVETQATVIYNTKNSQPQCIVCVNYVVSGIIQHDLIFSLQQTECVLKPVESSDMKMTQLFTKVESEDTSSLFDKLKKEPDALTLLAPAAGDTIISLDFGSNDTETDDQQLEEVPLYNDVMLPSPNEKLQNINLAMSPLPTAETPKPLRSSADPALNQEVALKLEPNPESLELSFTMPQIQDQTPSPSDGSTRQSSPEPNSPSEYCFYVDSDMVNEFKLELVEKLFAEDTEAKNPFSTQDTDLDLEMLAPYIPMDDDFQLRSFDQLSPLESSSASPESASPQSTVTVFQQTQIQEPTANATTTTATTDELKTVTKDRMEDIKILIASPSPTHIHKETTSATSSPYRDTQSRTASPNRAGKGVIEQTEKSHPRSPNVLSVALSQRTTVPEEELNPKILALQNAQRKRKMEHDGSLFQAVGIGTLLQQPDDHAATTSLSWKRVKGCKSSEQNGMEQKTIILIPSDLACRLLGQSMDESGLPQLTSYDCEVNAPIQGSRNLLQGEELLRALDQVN

| Compound | IC50 [µM] |
| --- | --- |
| CO/N=C(/C(=O)OC)c1ccccc1COc1cccc(OCc2ccccc2)c1 | 1.12 |
| CO/N=C/c1ccc(OC)c(OCc2ccccc2/C(=N\OC)C(=O)OC)c1 | 14.9 |
| CO/N=C(\C)c1cccc(OCc2ccccc2/C(=N\OC)C(=O)OC)c1 | 4.52 |
| CO/N=C(/C(=O)OC)c1ccccc1COc1cccc(O)c1 | 9.16 |
| CO/N=C(/C(=O)OC)c1ccccc1COc1cccc(OCc2ccc(Cl)cc2)c1 | 0.6 |
| C=Cc1ccc(COc2cccc(OCc3ccccc3/C(=N\OC)C(=O)OC)c2)cc1 | 0.87 |
| CO/N=C/c1cccc(OCc2ccccc2/C(=N\OC)C(=O)OC)c1 | 3.4 |
| CO/N=C(/C(=O)OC)c1ccccc1COc1cccc(OCc2cc(C(F)(F)F)cc(C(F)(F)F)c2)c1 | 0.94 |
| CO/N=C(/C(=O)OC)c1ccccc1COc1cccc(OCC#N)c1 | > 20 |
